Results published in article PMC9898036, “VIP152 is a selective CDK9 inhibitor with pre-clinical in vitro and in vivo efficacy in chronic lymphocytic leukemia” (Leukemia, 2022).

Legend:
MAP3K2 = MAP3K2 (Homo sapiens, UniProt Q9Y2U5); test: KINOMEscan: MAP3K2; assay type: binding; conditions: 1000 nM, read-out: Percent Control
CLL patient samples = test: Western blot of CLL patient samples; assay type: cell-based, human; conditions: 1 µM, 8 h
Description: Lysate concentration was quantified using Pierce™ BCA Protein Assay Kit (ThermoFiser Scientific – cat. 23225) and proteins were analyzed via immunoblot. A full list of antibodies may be found in the supplementary methods section. All images are representative of three independent experiments.
P-TEFb’s role in regulating transcription through POLII CTD phosphorylation is a canonical function of this complex. To interrogate the transcriptional changes associated with VIP152 treatment, we treated B-cells, isolated from four patients with treatment-naïve CLL, with 1 µM VIP152 or DMSO for two hours followed by fluorescence-assisted cell sorting for 500 live (Sytox^−), CD45^+/CD5^+/CD19^+ cells (Fig. 3A). Our group has previously defined an analysis pipeline, named CLEAR, which identifies evenly distributed reads for differentially expressed gene (DEG) analysis. […] When we looked at the expression of these differentially abundant genes via an unsupervised clustered heatmap, we noted that there was high concordance between the patient samples with clustering dependent on treatment group (Fig. 3C). The treatment did induce decreased transcript abundance of genes previously reported to be controlled by CDK9 activity, namely JUNB, BTG1, and MCL1 [45, 46]. Downregulation of the anti-apoptotic MCL1 (LFC: −1.231056 & p-value = 0.02) likely contributes to the susceptibility of primary CLL cells to apoptosis (Fig. 2F, G). […] It has been established that AU-rich element (ARE) mRNA molecules are under tight temporal regulation and control a variety of cellular processes. Moreover, the relationship between P-TEFb mediated transcription and ARE-bearing mRNA has previously been described. […] We appreciate from our limiting-cell RNA sequencing experiments that the loss of tristetrapolin (ZFP36) transcripts (LFC: −4.02; adjusted p-value: 7.97*10^−40) and the upregulation of ribosomal transcripts, likely correspond to a possible compensatory mechanism by which these cells attempt to improve translational output and maximize transcript maintenance in response to VIP152-induced transcriptional shutdown. […] We looked at transcripts which had been shown by photoactivatable ribonucleoside cross-linking and immunoprecipitation (PAR-CLIP) to interact with ZFP36 [50]. […]
Fig. 3 VIP152 induces rapid transcriptomic changes. […] E–G 7 CLL patient samples were treated for 8 h with 1 µM VIP152 and then analyzed for protein expression by western blot (E, F) and ZFP36, ZFP36L1, and ZFP36L2 expression by qRT-PCR (G). H–L 5 CLL patient samples were treated for 8 h with 1 µM VIP152 and then supplemented with 500 nM Actinomycin-D. RNA was taken at varying timepoints and analyzed via qRT-PCR. M mRNA half-lives of analyzed transcripts in (H–L) as determined by nonlinear regression using a one-phase decay method.

CAMK1D = CAMK1D (Homo sapiens, UniProt Q8IU85); test: KINOMEscan: CAMK1D; assay type: binding; conditions: 1000 nM, read-out: Percent Control
TSSK3 = TSSK3 (Homo sapiens, UniProt Q96PN8); test: KINOMEscan: TSSK3; assay type: binding; conditions: 100 nM, read-out: Percent Control
PIKFYVE = PIKFYVE (Homo sapiens, UniProt Q9Y2I7); test: KINOMEscan: PIKFYVE; assay type: binding
Description: The structure and synthesis of VIP152 were recently described by Lücking et al.. (Fig. 1A); however, the selectivity of the molecule in cellular systems has yet to be explored. […] We also performed this experiment at 1000 nM, where CDK9 was inhibited at 99%. […] We found a strong concordance between our data and those of Lücking when comparing the most inhibited kinases. Potential off-target effects of VIP152 were next tested in vitro at a concentration of 10 µM for off-target activity against a broad range of receptors, transporters, ion channels, and enzymes (n = 138) using the Eurofins Diversity Panel.
Kinomescan Kinase Profiling Assay
Kinomescan Assay was performed at DiscoverRX and described in Fabian, et al. 2005, Nat.
Biotechnol. In brief, kinases were produced and subsequently tagged with DNA for qPCR detection.
Streptavidin-coated magnetic beads were bound to biotinylated kinase ligands to serve as a solid support.
VIP152 was dissolved in DMSO and tested across a 10 serial threefold dilution set and compared to a test compound and a DMSO control. Kinases which were inhibited by VIP152 would not be bound to the solid-support resulting in decreased substrate for the qPCR reaction. Kinome map was produced via TreeSpot Analysis from DiscoverRX. […]
NanoBRETTM Target Engagement Assay Protocol […]
The cell and lipid:DNA […]
complex was dispensed into a sterile tissue culture dish and incubated for 22-24 hours. Test compounds were then delivered from the compound source plate to the wells of a 384-well white NBS plate by Echo 550. Cells with NanoBRET Tracer Reagent were then prepared by first removing media from dish of transfected HEK293 cells via aspiration, trypsinization, and allowing cells to dissociate from the dish. Trypsin was neutralized using medium containing serum and centrifuged at 200g for 5 minutes to pellet the cells. Cell density was then adjusted to 2E05 cells/mL in Opti-MEM without phenol red. Complete 20X NanoBRET Tracer Reagent was prepared with Tracer Dilution Buffer and dispensed at a ratio of 1:20 Reagent to cells in the tube. The cell

GABAB1A = GABAB1A (Homo sapiens, UniProt Q9UBS5); test: Eurofins Diversity Panel; assay type: binding; conditions: hum, Conc. 10 μM
[1] = system: HG-3 and MEC-1 cell lines; test: Western blot of treated CLL cell lines; assay type: cell-based, human
DYRK2 = DYRK2 (Homo sapiens, UniProt Q92630); test: KINOMEscan: DYRK2; assay type: binding; conditions: 1000 nM, read-out: Percent Control
Chain of DYRK2 (Q92630 whole entry): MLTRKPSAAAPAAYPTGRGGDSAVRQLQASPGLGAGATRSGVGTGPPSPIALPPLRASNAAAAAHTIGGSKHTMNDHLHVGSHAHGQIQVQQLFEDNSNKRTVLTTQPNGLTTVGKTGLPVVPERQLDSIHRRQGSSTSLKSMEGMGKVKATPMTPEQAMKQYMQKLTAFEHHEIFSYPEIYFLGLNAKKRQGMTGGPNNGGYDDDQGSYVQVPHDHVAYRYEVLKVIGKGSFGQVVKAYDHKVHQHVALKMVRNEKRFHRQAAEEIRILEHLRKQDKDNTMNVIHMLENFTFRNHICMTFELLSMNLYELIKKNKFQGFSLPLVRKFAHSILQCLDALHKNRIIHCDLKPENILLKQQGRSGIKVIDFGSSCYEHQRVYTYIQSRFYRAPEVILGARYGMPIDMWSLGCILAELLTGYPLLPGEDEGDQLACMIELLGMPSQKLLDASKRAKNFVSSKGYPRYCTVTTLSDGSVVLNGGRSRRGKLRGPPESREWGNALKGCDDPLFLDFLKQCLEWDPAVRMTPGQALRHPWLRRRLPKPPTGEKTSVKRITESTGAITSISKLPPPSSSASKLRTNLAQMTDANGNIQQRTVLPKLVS

Chain of PIKFYVE (Q9Y2I7 whole entry): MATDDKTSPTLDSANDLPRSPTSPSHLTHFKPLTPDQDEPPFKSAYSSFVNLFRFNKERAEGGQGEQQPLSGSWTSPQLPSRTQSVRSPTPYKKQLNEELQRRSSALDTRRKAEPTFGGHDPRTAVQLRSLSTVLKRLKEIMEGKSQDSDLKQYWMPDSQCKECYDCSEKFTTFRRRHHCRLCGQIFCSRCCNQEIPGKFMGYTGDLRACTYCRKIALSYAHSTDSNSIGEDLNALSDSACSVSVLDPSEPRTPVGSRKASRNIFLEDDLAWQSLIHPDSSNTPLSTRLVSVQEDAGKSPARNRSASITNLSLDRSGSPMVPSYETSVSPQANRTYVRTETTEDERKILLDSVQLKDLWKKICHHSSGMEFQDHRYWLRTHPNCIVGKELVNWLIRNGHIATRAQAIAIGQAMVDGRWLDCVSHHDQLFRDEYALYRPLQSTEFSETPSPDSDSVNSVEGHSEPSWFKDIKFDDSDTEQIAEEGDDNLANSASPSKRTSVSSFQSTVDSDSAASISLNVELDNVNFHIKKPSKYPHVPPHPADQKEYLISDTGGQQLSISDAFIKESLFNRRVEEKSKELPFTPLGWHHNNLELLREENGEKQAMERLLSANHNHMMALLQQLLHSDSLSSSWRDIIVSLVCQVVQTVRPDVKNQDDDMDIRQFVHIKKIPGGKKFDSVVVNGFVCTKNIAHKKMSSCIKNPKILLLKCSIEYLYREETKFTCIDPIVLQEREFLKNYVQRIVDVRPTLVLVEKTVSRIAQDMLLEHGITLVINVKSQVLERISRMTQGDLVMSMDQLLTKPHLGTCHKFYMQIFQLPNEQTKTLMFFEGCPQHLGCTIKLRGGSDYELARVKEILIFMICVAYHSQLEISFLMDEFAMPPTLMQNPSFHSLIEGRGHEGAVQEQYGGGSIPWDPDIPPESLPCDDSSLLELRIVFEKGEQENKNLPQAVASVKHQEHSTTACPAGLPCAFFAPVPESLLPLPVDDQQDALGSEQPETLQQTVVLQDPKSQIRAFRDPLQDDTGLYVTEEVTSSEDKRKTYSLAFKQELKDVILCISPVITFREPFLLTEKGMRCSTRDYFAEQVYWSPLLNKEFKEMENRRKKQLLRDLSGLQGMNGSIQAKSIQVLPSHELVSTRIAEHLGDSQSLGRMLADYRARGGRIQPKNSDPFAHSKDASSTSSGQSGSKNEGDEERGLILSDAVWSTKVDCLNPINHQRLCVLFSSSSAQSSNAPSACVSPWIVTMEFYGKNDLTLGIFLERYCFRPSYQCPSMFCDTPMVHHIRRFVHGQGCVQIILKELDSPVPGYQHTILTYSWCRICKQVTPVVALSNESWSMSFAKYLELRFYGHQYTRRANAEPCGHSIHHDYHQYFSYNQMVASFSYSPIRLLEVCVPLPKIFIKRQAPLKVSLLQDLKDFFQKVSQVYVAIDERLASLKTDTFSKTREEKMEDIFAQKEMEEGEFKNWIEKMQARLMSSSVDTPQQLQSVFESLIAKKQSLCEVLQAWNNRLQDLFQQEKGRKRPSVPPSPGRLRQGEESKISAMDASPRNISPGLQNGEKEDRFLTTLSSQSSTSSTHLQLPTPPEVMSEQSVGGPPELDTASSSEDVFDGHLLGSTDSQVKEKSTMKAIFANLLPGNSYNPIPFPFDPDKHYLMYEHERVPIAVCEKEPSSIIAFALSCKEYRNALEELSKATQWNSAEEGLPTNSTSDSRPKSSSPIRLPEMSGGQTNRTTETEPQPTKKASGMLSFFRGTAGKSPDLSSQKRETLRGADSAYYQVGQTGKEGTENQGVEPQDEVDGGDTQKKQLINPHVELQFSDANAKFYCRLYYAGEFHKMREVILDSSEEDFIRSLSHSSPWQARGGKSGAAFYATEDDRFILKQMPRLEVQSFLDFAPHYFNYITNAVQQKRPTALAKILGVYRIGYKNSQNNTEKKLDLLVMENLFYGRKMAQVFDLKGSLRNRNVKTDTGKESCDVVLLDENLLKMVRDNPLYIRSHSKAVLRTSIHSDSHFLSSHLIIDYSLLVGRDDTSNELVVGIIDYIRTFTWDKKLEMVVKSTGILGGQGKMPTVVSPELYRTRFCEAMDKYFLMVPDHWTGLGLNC
Chain of TSSK3 (Q96PN8 whole entry): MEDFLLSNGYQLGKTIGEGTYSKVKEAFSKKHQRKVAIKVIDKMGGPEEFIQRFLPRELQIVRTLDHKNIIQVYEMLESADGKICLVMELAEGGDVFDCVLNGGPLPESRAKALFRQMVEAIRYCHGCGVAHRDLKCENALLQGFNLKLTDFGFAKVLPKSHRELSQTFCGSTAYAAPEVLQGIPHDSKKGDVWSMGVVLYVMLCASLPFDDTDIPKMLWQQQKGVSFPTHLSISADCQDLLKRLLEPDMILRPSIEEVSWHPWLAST
Chain of MAP3K2 (Q9Y2U5 whole entry): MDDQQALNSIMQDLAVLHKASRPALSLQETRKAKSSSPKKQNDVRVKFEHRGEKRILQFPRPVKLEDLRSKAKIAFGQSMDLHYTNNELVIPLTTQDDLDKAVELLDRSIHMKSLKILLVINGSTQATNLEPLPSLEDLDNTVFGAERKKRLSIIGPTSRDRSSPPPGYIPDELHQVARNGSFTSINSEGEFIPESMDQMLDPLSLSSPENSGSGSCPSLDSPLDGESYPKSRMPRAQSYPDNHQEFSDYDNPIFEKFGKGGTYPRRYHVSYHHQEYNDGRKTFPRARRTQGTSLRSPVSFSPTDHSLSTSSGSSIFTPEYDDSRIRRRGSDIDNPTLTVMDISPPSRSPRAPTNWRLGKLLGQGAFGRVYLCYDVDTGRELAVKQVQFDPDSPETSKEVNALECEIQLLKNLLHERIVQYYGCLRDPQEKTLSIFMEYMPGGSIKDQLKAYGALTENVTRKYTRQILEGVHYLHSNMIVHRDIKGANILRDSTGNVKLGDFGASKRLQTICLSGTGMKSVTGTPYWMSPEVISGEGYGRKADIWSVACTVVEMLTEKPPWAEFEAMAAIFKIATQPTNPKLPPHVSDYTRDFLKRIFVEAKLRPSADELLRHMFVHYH
Chain of GABAB1A (Q9UBS5 15-961 limits assumed): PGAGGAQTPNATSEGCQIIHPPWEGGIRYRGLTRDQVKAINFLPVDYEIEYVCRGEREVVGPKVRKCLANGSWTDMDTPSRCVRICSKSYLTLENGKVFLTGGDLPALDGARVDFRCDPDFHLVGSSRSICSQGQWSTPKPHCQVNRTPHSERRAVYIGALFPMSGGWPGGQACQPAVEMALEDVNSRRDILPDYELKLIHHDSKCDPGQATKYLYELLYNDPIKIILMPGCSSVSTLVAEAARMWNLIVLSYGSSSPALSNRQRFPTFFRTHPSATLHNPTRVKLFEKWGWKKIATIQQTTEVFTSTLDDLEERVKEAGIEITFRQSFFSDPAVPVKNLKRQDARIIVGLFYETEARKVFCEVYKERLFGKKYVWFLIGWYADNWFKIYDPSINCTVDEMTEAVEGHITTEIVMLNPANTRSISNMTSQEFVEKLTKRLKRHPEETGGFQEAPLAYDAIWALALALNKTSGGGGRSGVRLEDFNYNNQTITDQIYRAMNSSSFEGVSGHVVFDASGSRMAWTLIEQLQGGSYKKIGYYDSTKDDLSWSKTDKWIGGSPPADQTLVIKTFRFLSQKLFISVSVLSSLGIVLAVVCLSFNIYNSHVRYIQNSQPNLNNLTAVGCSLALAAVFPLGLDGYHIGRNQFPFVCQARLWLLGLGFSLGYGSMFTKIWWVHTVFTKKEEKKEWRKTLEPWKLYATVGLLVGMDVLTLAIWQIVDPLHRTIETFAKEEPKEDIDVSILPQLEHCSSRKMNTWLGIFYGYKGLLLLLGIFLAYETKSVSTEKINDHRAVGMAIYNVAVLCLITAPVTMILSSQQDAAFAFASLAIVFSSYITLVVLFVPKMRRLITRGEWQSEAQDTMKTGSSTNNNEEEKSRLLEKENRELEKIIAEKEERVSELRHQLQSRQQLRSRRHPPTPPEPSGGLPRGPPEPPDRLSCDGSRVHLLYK
Chain of CAMK1D (Q8IU85 whole entry): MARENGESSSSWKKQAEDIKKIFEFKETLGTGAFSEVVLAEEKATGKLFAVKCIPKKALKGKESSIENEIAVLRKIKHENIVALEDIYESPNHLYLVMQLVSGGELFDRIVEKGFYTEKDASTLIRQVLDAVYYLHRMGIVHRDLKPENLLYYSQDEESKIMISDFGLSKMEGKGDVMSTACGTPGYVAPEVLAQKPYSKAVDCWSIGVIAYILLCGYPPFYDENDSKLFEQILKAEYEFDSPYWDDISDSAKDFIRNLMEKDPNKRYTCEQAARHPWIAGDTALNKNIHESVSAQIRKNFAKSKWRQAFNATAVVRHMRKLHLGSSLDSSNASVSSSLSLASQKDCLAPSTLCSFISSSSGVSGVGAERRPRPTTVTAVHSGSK

COc1cc(F)ccc1-c1cc(Nc2cc(CS(C)(=N)=O)ccn2)ncc1F (stereo not drawn) [VIP152]
remaining binding at 1 µM (MAP3K2): 57%
BTG1 protein (CLL patient samples): not
JUNB protein (CLL patient samples): decrease
MCL1 protein (CLL patient samples): decrease
expression of tristetrapolin (ZFP36) (CLL patient samples; seven CLL patient samples): decreased expression
remaining binding at 1 µM (CAMK1D): 99%
remaining binding at 0.1 µM (TSSK3): 96%
inhibition at 0.1 µM (PIKFYVE; 100 nM, read-out: inhibition of PIKFYVE relative to control): 74%
remaining binding at 0.1 µM (PIKFYVE; PIKFYVE, 100 nM, read-out: Percent Control): 26%
remaining binding at 1 µM (PIKFYVE; kinase PIKFYVE (Entrez PIKFYVE), compound concentration 1000 nM, read-out: Percent Control): 55%
inhibition at 10 µM (GABAB1A): 1%
MCL1 protein levels ([1]; 0.1 µM, 8 h): decreased
Phosphorylation of serine 5 (marker of CDK7 activity) ([1]; 0.1 µM, 8 h): not diminished
glycogen synthase phosphorylation at serine 641 (marker of GSK3α/β activity) ([1]; 0.1 µM, 8 h): did not observe a decrease
phospho-serine 2 (pS2) of RNA Polymerase II ([1]; 0.1 µM, 8 h): decrease
MCL1 ([1]; 1 µM, across 24 h): decreased
c-MYC ([1]; 1 µM, across 24 h): decreased
pS2 ([1]; 1 µM, across 24 h): decreased
pS5 ([1]; 1 µM, across 24 h): minimal change
PARP cleavage (induction of apoptosis) ([1]; beginning at six hours): detect PARP cleavage
remaining binding at 1 µM (DYRK2): 62%
